Test [1] concerns BRAF^V600E melanoma cells. Kind of test: Cell viability, panel of BRAF V600E human melanoma cell lines. In kind it is cell-based. The following applies: summary of Table 1, BRAF V600E lines, read-out: IC50 (sensitivity to AP). The text has this:
(§1) A panel of human melanoma cell lines with different BRAF mutational status were screened for their sensitivity to the BRAF inhibitor PLX4720. […] The IC50 value is defined as the concentration of the compound (PLX4720) required to inhibit 50% cell viability compared to an untreated control. This approach allowed for the ranking of the relative sensitivity of each cell line to the PLX4720 BRAF inhibitor. Thus, the sensitivity of these BRAF^V600E melanoma cells to BRAF inhibition with PLX4720 reflected their functional dependence on mutant BRAF signaling to sustain their proliferation and viability. Likewise, it was tested whether BRAF^V600E cells were more sensitive compared to BRAF^WT melanoma cells to increasing concentrations of the cytotoxic polyamine transport ligand, AP.

Test [2] has as its system BRAF^WT melanoma cells. Kind of test: Cell viability, panel of BRAF WT human melanoma cell lines. In kind it is cell-based. The following applies: summary of Table 1, BRAF WT lines, read-out: IC50 (sensitivity to AP).
Source text: as §1

For test [3], the system named is WM983B melanoma cells. Kind of test: Cell viability assay (EZQuant), WM983B. In kind it is cell-based. The following applies: Homo sapiens, AP alone, 72 h.
Procedure: Cell proliferation assays were conducted in 96-well plates at 25-30% starting confluence to determine the effect of exposure to increasing concentrations of PLX4720 or AP with or without 1 mM DFMO for 72 hours. Cell viability was assessed using the EZQuant™ Cell Quantifying Kit (Alstem) in which WST-8 is reduced by the metabolic activity of live cells to formazan dye. […] The 72 hour IC50 values for AP were calculated using non-linear regression (sigmoidal dose response) of the plot of percentage inhibition versus the log of inhibitor concentration in GraphPad Prism (v5; GraphPad Software, Inc., La Jolla, Calif.).
For test [4], the system named is 1205Lu melanoma spheroids. Kind of test: 3D spheroid culture viability (CellTiter-Glo). The note with it: FIG. 10, 25 μM each drug, 48 h, 3D spheroids on NCPs. In kind it is cell-based, human. The procedure:
BRAF^V600E mutant 1205Lu melanoma cells were seeded at 1×10^4 cells in each well of the […] NCPs. When spheroids were formed on day 3, the 3D cultures of spheroids were treated with PLX4720 (25 μM) and/or AP (25 μM). 2D monolayer cultures of 1205Lu melanoma cells were also treated with PLX4720 (25 μM) and/or AP (25 μM). After drug treatment for 48 hours, the viability of spheroids and monolayer cultures was assayed using the CellTiter-Glo Luminescent Cell Viability Assay. The percent cell survival in each treatment group was calculated relative to cells treated with medium only under the same conditions. As controls, the growth of cells without drug treatment under each condition was normalized as 100% separately. The means are presented±SD.
The inorganic nanoscale scaffolding NanoCulture plates (NCP) were purchased from SCIVAX. The base of each NCP is constructed with a transparent cyclo-olefin resinous sheet with a nanoscale indented pattern. To form spheroids, 1205Lu human melanoma cells were seeded in 96-well NCPs at 1×10^4 cells/well in MCDB153 (Sigma)/Leibovitz's L-15 (Cellgro) medium (4:1 ratio) supplemented with 2% heat-inactivated fetal calf serum and 2 mM CaCl2 and incubated in a conventional cell incubator at 37° C. in an atmosphere of 5% CO2 and normal O2 levels. […]

The test system of test [5] is B16F10 melanoma tumors. The test can be described thus: B16F10 melanoma tumor model (Example 3). In kind it is in vivo, C57Bl/6 mice. The procedure:
C57Bl/6 mice were injected s.c. with 1.5×10^5 B16F10 melanoma cells. B16F10 melanoma cells are a poorly immunogenic, highly metastatic, and highly aggressive cancer cell line. When tumors were 40-80 mm^3 in size, AP (Formula (II)) treatment (i.p., 2 mg/kg every other day) was initiated. Some mice were also administered 0.25% DFMO (w/v) in the drinking water. Tumors were measured with calipers to determine tumor volume over 14 days of treatment (FIG. 12A). Splenocytes from mice treated with vehicle, DFMO, AP, or AP+DFMO were analyzed by flow cytometry for F4/80+CD206^+ M2 macrophages (FIG. 12B). Splenocytes were treated for 4 hours at 37° C. with ionomycin (500 ng/ml) and PMA (50 ng/ml) to stimulate T cells to produce IFNγ in the presence of Brefeldin A to block cytokine secretion. Cells were stained with anti-CD4 antibody in the presence of Brefeldin A, fixed, permeabilized and intracellularly stained with an anti-IFNγ antibody and analyzed by flow cytometry (FIG. 12C).

Molecules are shown by their SMILES. Like-named read-outs stand apart in the source and are kept apart here.

In general, IC50 refers to the point on the concentration scale where inhibition reaches its midpoint.

With `CNCNCNCc1ccc(CNCNCNC)c2ccccc12` [AP], the IC50 was under 2500 nM in test [1]; over 4000 nM in test [2]; 2.6 µM in test [3] (BRAF V600E, read-out: IC50 (μM AP)); 2.3 µM in test [3] (FIG. 8C, read-out: IC50). Besides, the “cell viability of spheroid cultures” value in test [4] was “similarly sensitive”. Also, the tumor growth result in test [5] (FIG. 12A, AP alone, i.p. 2 mg/kg every other day, 14 days) was “inhibits tumor growth”. In test [5] (FIG. 12B, AP alone), the “CD206+ F4/80+ macrophages (splenocytes)” value is “dramatically decreases”. The “IFN-gamma-secreting T cells” value in test [5] (FIG. 12C, splenocytes stimulated with ionomycin and PMA) is “increasing”.

The values are drawn from patent US20190365673A1, “Immunomodulatory Compounds” (Lankenau Institute for Medical Research, priority 2016, published 2019).
